Experimental data taken from patent US6369069B1 (Aventis Pharma Deutschland GmbH, priority 1998, dated 2002).

Test system: Na^+-dependent Cl^−/HCO3^− exchanger (NCBE)
Experiment: Inhibition of the Na+-dependent Cl−/HCO3− exchanger (NCBE) in human endothelial cells (pHi recovery, BCECF fluorescence, FLIPR)
Format: cell-based
Conditions: 10 μM
In short: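 ECV-304 cells loaded with 5 μM BCECF-AM in NH4Cl-containing saline, then placed in Na+/HCO3−-free buffer to acidify. pHi recovery started with Na+/HCO3− buffer (50 μM HOE 642) plus compound at various concentrations. Fluorescence kinetics over 2 min at 35 °C, normalised to 100% and 0% (HCO3−-free) controls.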

Compound	Residual activity % of the NCBE at 10 μM
COc1ccc(CC(=O)N(Cc2ccc(-c3ccccc3S(=O)(=O)NC#N)cc2)Cc2ccccc2Cl)cc1 [Example 174]	50.2%
COc1ccc(CC(=O)N(Cc2ccc(-c3ccccc3S(=O)(=O)NC#N)cc2)CC2CC2)cc1 [Example 175]	93.2%
COc1ccc(CC(=O)N(Cc2ccc(-c3ccccc3S(=O)(=O)NC#N)cc2)Cc2cc(OC)c(OC)c(OC)c2)cc1 [Example 176]	83.9%
COc1ccc(CC(=O)N(Cc2ccc(F)cc2)Cc2ccc(-c3ccccc3S(=O)(=O)NC#N)cc2)cc1 [Example 177]	64.4%
CC(=O)N(Cc1ccc(-c2ccccc2S(=O)(=O)NC#N)cc1)Cc1ccco1 [Example 178]	70.6%
CC(=O)N(CCc1cccs1)Cc1ccc(-c2ccccc2S(=O)(=O)NC#N)cc1 [Example 179]	78.3%
CC(=O)N(CCOc1ccccc1)Cc1ccc(-c2ccccc2S(=O)(=O)NC#N)cc1 [Example 180]	70.9%
CC(=O)N(Cc1ccc(-c2ccccc2S(=O)(=O)NC#N)cc1)Cc1ccccc1Cl [Example 181]	80.8%
CC(=O)N(Cc1ccc(-c2ccccc2S(=O)(=O)NC#N)cc1)CC1CC1 [Example 182]	74.9%
CC(=O)N(Cc1ccc(F)cc1)Cc1ccc(-c2ccccc2S(=O)(=O)NC#N)cc1 [Example 185]	85.0%
N#CNS(=O)(=O)c1ccccc1-c1ccc(CN(CCCc2ccccc2)C(=O)CCCc2cccs2)cc1 [Example 186]	9.7%
COCCN(Cc1ccc(-c2ccccc2S(=O)(=O)NC#N)cc1)C(=O)CCCc1cccs1 [Example 187]	62.4%
N#CNS(=O)(=O)c1ccccc1-c1ccc(CN(Cc2ccccn2)C(=O)CCCc2cccs2)cc1 [Example 188]	52.3%
N#CNS(=O)(=O)c1ccccc1-c1ccc(CN(C(=O)CCCc2cccs2)C2CC2)cc1 [Example 189]	72.5%
CN(Cc1ccc(-c2ccccc2S(=O)(=O)NC#N)cc1)C(=O)CCCc1cccs1 [Example 190]	43.4%
CCN(Cc1ccc(-c2ccccc2S(=O)(=O)NC#N)cc1)C(=O)CCCc1cccs1 [Example 191]	39.3%
N#CNS(=O)(=O)c1ccccc1-c1ccc(CN(Cc2nc3ccccc3[nH]2)C(=O)CCCc2cccs2)cc1 [Example 192]	49.1%
COC(=O)C(Cc1ccccc1)N(Cc1ccc(-c2ccccc2S(=O)(=O)NC#N)cc1)C(=O)CCCc1cccs1 (stereo not shown) [Example 193]	62.8%
N#CNS(=O)(=O)c1ccccc1-c1ccc(CN(CCCc2ccccc2)C(=O)C(=O)c2cccs2)cc1 [Example 194]	61.1%
COCCN(Cc1ccc(-c2ccccc2S(=O)(=O)NC#N)cc1)C(=O)C(=O)c1cccs1 [Example 195]	58.3%
N#CNS(=O)(=O)c1ccccc1-c1ccc(CN(Cc2ccccn2)C(=O)C(=O)c2cccs2)cc1 [Example 196]	62.8%
N#CNS(=O)(=O)c1ccccc1-c1ccc(CN(C(=O)C(=O)c2cccs2)C2CC2)cc1 [Example 197]	79.9%

Compound	Residual activity % of the NCBE at 10 μM
CN(Cc1ccc(-c2ccccc2S(=O)(=O)NC#N)cc1)C(=O)C(=O)c1cccs1 [Example 198]	51.1%
CCN(Cc1ccc(-c2ccccc2S(=O)(=O)NC#N)cc1)C(=O)C(=O)c1cccs1 [Example 199]	54.7%
COC(=O)C(Cc1ccccc1)N(Cc1ccc(-c2ccccc2S(=O)(=O)NC#N)cc1)C(=O)C(=O)c1cccs1 (stereo not shown) [Example 201]	69.6%
N#CNS(=O)(=O)c1ccccc1-c1ccc(CN(CCCc2ccccc2)C(=O)Cc2c[nH]c3ccccc23)cc1 [Example 202]	38.5%
COCCN(Cc1ccc(-c2ccccc2S(=O)(=O)NC#N)cc1)C(=O)Cc1c[nH]c2ccccc12 [Example 203]	30.3%
N#CNS(=O)(=O)c1ccccc1-c1ccc(CN(Cc2ccccn2)C(=O)Cc2c[nH]c3ccccc23)cc1 [Example 204]	52.4%
N#CNS(=O)(=O)c1ccccc1-c1ccc(CN(C(=O)Cc2c[nH]c3ccccc23)C2CC2)cc1 [Example 205]	41.7%
CN(Cc1ccc(-c2ccccc2S(=O)(=O)NC#N)cc1)C(=O)Cc1c[nH]c2ccccc12 [Example 206]	23.8%
CCN(Cc1ccc(-c2ccccc2S(=O)(=O)NC#N)cc1)C(=O)Cc1c[nH]c2ccccc12 [Example 207]	31.0%
N#CNS(=O)(=O)c1ccccc1-c1ccc(CN(Cc2nc3ccccc3[nH]2)C(=O)Cc2c[nH]c3ccccc23)cc1 [Example 208]	50.7%
COC(=O)C(Cc1ccccc1)N(Cc1ccc(-c2ccccc2S(=O)(=O)NC#N)cc1)C(=O)Cc1c[nH]c2ccccc12 (stereo not shown) [Example 209]	56.2%
N#CNS(=O)(=O)c1ccccc1-c1ccc(CN(CCCc2ccccc2)C(=O)Cc2csc3ccccc23)cc1 [Example 210]	66.2%
COCCN(Cc1ccc(-c2ccccc2S(=O)(=O)NC#N)cc1)C(=O)Cc1csc2ccccc12 [Example 211]	50.6%
N#CNS(=O)(=O)c1ccccc1-c1ccc(CN(Cc2ccccn2)C(=O)Cc2csc3ccccc23)cc1 [Example 212]	60.2%
N#CNS(=O)(=O)c1ccccc1-c1ccc(CN(C(=O)Cc2csc3ccccc23)C2CC2)cc1 [Example 213]	45.0%
CN(Cc1ccc(-c2ccccc2S(=O)(=O)NC#N)cc1)C(=O)Cc1csc2ccccc12 [Example 214]	44.3%
CCN(Cc1ccc(-c2ccccc2S(=O)(=O)NC#N)cc1)C(=O)Cc1csc2ccccc12 [Example 215]	65.7%
N#CNS(=O)(=O)c1ccccc1-c1ccc(CN(Cc2nc3ccccc3[nH]2)C(=O)Cc2csc3ccccc23)cc1 [Example 216]	62.2%
COC(=O)C(Cc1ccccc1)N(Cc1ccc(-c2ccccc2S(=O)(=O)NC#N)cc1)C(=O)Cc1csc2ccccc12 (stereo not shown) [Example 217]	46.0%
N#CNS(=O)(=O)c1ccccc1-c1ccc(CN(CCCc2ccccc2)C(=O)CCCCc2cccs2)cc1 [Example 218]	87.1%
COCCN(Cc1ccc(-c2ccccc2S(=O)(=O)NC#N)cc1)C(=O)CCCCc1cccs1 [Example 219]	82.5%
N#CNS(=O)(=O)c1ccccc1-c1ccc(CN(Cc2ccccn2)C(=O)CCCCc2cccs2)cc1 [Example 220]	73.2%

Compound	Residual activity % of the NCBE at 10 μM
N#CNS(=O)(=O)c1ccccc1-c1ccc(CN(C(=O)CCCCc2cccs2)C2CC2)cc1 [Example 221]	72.3%
CN(Cc1ccc(-c2ccccc2S(=O)(=O)NC#N)cc1)C(=O)CCCCc1cccs1 [Example 222]	76.7%
CCN(Cc1ccc(-c2ccccc2S(=O)(=O)NC#N)cc1)C(=O)CCCCc1cccs1 [Example 223]	53.8%
N#CNS(=O)(=O)c1ccccc1-c1ccc(CN(Cc2nc3ccccc3[nH]2)C(=O)CCCCc2cccs2)cc1 [Example 224]	79.8%
COC(=O)C(Cc1ccccc1)N(Cc1ccc(-c2ccccc2S(=O)(=O)NC#N)cc1)C(=O)CCCCc1cccs1 (stereo not shown) [Example 225]	88.1%
N#CNS(=O)(=O)c1ccccc1-c1ccc(CN(CCCc2ccccc2)C(=O)Cc2ccsc2)cc1 [Example 226]	34.8%
COCCN(Cc1ccc(-c2ccccc2S(=O)(=O)NC#N)cc1)C(=O)Cc1ccsc1 [Example 227]	50.6%
N#CNS(=O)(=O)c1ccccc1-c1ccc(CN(Cc2ccccn2)C(=O)Cc2ccsc2)cc1 [Example 228]	94.8%
N#CNS(=O)(=O)c1ccccc1-c1ccc(CN(C(=O)Cc2ccsc2)C2CC2)cc1 [Example 229]	86.7%
CN(Cc1ccc(-c2ccccc2S(=O)(=O)NC#N)cc1)C(=O)Cc1ccsc1 [Example 230]	68.6%
CCN(Cc1ccc(-c2ccccc2S(=O)(=O)NC#N)cc1)C(=O)Cc1ccsc1 [Example 231]	57.8%
N#CNS(=O)(=O)c1ccccc1-c1ccc(CN(Cc2nc3ccccc3[nH]2)C(=O)Cc2ccsc2)cc1 [Example 232]	62.6%
COC(=O)C(Cc1ccccc1)N(Cc1ccc(-c2ccccc2S(=O)(=O)NC#N)cc1)C(=O)Cc1ccsc1 (stereo not shown) [Example 233]	68.1%
N#CNS(=O)(=O)c1ccccc1-c1ccc(CN(Cc2ccc(C(F)(F)F)cc2)C(=O)Cc2cccs2)cc1 [Example 235]	67.1%
N#CNS(=O)(=O)c1ccccc1-c1ccc(CN(CCCc2ccccc2)C(=O)Cc2cccs2)cc1 [Example 236]	35.1%
COCCN(Cc1ccc(-c2ccccc2S(=O)(=O)NC#N)cc1)C(=O)Cc1cccs1 [Example 237]	50.3%
N#CNS(=O)(=O)c1ccccc1-c1ccc(CN(CC2=Nc3ccccc3CN2)C(=O)Cc2cccs2)cc1 [Example 238]	54.7%
CN(Cc1ccc(-c2ccccc2S(=O)(=O)NC#N)cc1)C(=O)Cc1cccs1 [Example 239]	56.3%
CCN(Cc1ccc(-c2ccccc2S(=O)(=O)NC#N)cc1)C(=O)Cc1cccs1 [Example 240]	58.0%
N#CNS(=O)(=O)c1ccccc1-c1ccc(CN(Cc2ccccc2)C(=O)C(N)c2ccccc2)cc1 (stereo not shown) [Example 241]	66.0%
